# According to ChEMBL document CHEMBL2073780, “The antiprogestatin drug RU 486 potentiates doxorubicin cytotoxicity in multidrug resistant cells through inhibition of P-glycoprotein function” (FEBS Lett, 1994):
# Assays:
# Assay type in all cases: functional, cell-based
# [1] = target: Multidrug resistance protein 1a (Rattus norvegicus) (UniProt Q6PSM0); assay: TP_TRANSPORTER: increase in Doxorubicin intracellular accumulation (Doxorubicin: 10 ug/mL, Progesterone: 10 uM) in RHC1 cells
# [2] = target: Multidrug resistance protein 1a (Rattus norvegicus) (UniProt Q6PSM0); assay: TP_TRANSPORTER: increase in Doxorubicin intracellular accumulation (Doxorubicin: 10 ug/mL, RU486: 10 uM) in RHC1 cells
# [3] = target: ATP-dependent translocase ABCB1 (Homo sapiens, UniProt P08183); assay: TP_TRANSPORTER: increase in Doxorubicin intracellular accumulation (Doxorubicin: 10 ug/mL, RU486: 10 uM) in K562 R7 cells; settings: k562/r7, 10 µM
# Sequence of ATP-dependent translocase ABCB1 (P08183 whole entry): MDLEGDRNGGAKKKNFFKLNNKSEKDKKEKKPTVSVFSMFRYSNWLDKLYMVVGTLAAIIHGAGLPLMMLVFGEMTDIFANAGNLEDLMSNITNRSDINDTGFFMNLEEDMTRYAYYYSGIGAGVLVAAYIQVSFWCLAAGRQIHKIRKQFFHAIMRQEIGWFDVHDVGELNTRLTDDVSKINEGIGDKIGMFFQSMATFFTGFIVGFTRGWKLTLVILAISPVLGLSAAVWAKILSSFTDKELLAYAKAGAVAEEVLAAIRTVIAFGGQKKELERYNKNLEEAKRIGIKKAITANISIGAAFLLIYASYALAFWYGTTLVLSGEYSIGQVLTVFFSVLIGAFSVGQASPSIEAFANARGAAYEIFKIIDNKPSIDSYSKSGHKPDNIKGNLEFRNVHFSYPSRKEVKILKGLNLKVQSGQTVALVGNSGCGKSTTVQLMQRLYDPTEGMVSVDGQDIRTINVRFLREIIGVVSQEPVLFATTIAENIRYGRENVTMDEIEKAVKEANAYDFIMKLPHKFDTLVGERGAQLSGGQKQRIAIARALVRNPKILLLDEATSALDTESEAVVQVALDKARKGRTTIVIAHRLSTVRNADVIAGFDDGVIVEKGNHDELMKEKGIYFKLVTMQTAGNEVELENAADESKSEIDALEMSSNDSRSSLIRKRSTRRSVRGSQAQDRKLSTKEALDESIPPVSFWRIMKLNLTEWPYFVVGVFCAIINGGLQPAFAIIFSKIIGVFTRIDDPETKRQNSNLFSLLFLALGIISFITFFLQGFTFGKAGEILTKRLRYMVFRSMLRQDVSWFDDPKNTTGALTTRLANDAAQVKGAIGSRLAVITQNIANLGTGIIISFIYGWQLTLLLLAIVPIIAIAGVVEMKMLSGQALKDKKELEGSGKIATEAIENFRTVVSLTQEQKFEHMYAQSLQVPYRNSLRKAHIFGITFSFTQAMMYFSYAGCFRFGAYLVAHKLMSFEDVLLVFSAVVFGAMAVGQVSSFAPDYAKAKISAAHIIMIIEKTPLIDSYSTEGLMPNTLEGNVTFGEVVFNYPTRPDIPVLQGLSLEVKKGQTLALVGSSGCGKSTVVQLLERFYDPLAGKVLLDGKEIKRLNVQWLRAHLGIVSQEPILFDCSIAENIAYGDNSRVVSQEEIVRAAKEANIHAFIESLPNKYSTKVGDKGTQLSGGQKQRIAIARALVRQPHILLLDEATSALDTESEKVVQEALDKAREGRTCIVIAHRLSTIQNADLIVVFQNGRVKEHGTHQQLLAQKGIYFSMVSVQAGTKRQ
# Sequence of Multidrug resistance protein 1a (Rattus norvegicus) (Q6PSM0 as listed by the source): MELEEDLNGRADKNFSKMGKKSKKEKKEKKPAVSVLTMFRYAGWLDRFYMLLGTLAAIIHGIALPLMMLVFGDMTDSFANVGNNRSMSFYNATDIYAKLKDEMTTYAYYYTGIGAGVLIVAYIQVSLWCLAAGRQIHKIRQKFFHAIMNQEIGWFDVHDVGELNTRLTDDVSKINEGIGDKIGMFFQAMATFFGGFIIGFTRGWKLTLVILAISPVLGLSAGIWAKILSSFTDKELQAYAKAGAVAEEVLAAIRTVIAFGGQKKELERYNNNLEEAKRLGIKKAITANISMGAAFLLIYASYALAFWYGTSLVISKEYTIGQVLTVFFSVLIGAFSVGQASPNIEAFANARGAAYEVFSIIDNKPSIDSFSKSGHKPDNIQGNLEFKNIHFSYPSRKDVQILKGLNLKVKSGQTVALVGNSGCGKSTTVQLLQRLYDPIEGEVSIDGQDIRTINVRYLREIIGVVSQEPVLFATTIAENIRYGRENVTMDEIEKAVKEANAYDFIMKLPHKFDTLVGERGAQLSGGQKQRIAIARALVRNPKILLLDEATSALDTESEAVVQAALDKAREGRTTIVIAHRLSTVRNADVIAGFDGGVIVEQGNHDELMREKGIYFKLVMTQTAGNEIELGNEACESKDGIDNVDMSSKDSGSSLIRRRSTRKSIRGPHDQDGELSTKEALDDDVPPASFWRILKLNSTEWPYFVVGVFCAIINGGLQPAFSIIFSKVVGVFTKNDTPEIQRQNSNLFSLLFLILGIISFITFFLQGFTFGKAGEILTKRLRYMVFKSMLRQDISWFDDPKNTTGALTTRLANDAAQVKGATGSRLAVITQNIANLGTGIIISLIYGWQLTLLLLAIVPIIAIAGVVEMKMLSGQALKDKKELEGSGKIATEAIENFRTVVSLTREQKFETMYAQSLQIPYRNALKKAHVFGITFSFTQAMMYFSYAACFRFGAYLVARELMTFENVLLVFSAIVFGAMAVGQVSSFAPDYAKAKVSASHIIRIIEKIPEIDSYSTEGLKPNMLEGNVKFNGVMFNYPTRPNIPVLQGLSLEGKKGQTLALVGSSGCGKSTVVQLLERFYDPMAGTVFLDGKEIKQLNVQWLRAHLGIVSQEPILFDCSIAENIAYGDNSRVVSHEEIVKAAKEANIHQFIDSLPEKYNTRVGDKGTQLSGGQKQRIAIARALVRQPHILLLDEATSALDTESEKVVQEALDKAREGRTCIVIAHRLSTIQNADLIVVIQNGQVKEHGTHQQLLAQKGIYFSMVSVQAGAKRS
Structure (SMILES),Activity [1],Activity [2],Activity [3]
CC(=O)[C@H]1CC[C@H]2[C@@H]3CCC4=CC(=O)CC[C@]4(C)[C@H]3CC[C@]12C,inhibitor [+],–,–
CC#C[C@]1(O)CC[C@H]2[C@@H]3CCC4=CC(=O)CCC4=C3[C@@H](c3ccc(N(C)C)cc3)C[C@@]21C [MIFEPRISTONE],–,inhibitor [+],inhibitor [+]
